target: human RIP1 kinase domain (2-375) (Homo sapiens (Human), UniProt Q13546); assay: biochemical; assay type: biochemical; conditions: Table 1; apparent Ki (Morrison tight-binding fit); 50 nM RIP1 kinase domain, 50 uM ATP, 2 hours incubation; read-out: RIP1 Ki
How it was run: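 50 nM purified kinase domain from baculovirus-infected insect cells, incubated 2 h with compound in 50 mM Hepes pH 7.5, 30 mM MgCl2, 1 mM DTT, 50 uM ATP, 0.002% Brij-35, 0.5% DMSO. ADP formation read by Transcreener FP at 633 nm excitation. Ki^app fitted with the Morrison tight-binding equation.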

Chain of human RIP1 kinase domain (2-375) (Q13546 2-375): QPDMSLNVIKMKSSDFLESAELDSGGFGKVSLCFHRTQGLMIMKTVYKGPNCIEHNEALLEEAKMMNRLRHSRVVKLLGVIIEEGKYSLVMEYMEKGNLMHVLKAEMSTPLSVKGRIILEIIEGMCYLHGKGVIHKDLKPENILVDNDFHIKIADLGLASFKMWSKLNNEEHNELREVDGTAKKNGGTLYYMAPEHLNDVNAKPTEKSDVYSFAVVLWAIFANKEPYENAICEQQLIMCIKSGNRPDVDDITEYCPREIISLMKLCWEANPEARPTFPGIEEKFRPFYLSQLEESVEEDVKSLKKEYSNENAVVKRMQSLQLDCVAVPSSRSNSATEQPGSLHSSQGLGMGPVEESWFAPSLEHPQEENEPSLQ

Compound	Ki
CN1C(=O)[C@@H](NC(=O)c2ncn3ccc(C(F)(F)F)cc23)COc2ccccc21 [Example 37, N-[(3S)-5-methyl-4-oxo-2,3-dihydro-1,5-benzoxazepin-3-yl]-7-(trifluoromethyl)imidazo[1,5-a]pyridine-1-carboxamide]	0.00508 µM
CC1(C)CCc2c(C(=O)N[C@H]3CCc4cc(Cl)ccc4NC3=O)n[nH]c2C1 [Example 53, (S)-N-(7-chloro-2-oxo-2,3,4,5-tetrahydro-1H-benzo[b]azepin-3-yl)-6,6-dimethyl-4,5,6,7-tetrahydro-1H-indazole-3-carboxamide]	4.5 µM

same assay, conditions: Table 5; apparent Ki (Morrison tight-binding fit); 50 nM RIP1 kinase domain, 50 uM ATP, 2 hours incubation; read-out: Ki

Ki	Compound
0.053 µM	CC(C)Cn1cc(-c2cc3n(n2)CCC(NC(=O)c2ncn(Cc4ccccc4)n2)C(=O)N3C)cn1 (racemic) [Example 699, 1-benzyl-N-[2-(1-isobutylpyrazol-4-yl)-4-methyl-5-oxo-7,8-dihydro-6H-pyrazolo[1,5-a][1,3]diazepin-6-yl]-1,2,4-triazole-3-carboxamide]
0.073 µM	CCOCCc1cc2n(n1)CC[C@H](NC(=O)c1ncn(Cc3ccccc3F)n1)C(=O)N2C [Example 763]
0.413 µM	Cc1nccn1Cc1cc2n(n1)CCC(NC(=O)c1ncn(Cc3ccccc3)n1)C(=O)N2C (racemic) [Example 706, 1-benzyl-N-[4-methyl-2-[(2-methylimidazol-1-yl)methyl]-5-oxo-7,8-dihydro-6H-pyrazolo[1,5-a][1,3]diazepin-6-yl]-1,2,4-triazole-3-carboxamide]
0.124 µM	COCCOCCc1cc2n(n1)CC[C@H](NC(=O)c1ncn(Cc3ccccc3)n1)C(=O)N2C [Example 755, 1-benzyl-N-[(6S)-2-[2-(2-methoxyethoxy)ethyl]-4-methyl-5-oxo-7,8-dihydro-6H-pyrazolo[1,5-a][1,3]diazepin-6-yl]-1,2,4-triazole-3-carboxamide]
0.012 µM	CN1C(=O)[C@@H](NC(=O)c2ncc3c(n2)[C@](C)(C(F)(F)F)OC3)COc2ccccc21 [Example 745, (7R)-7-methyl-N-[(3S)-5-methyl-4-oxo-2,3-dihydro-1,5-benzoxazepin-3-yl]-7-(trifluoromethyl)-5H-furo[3,4-d]pyrimidine-2-carboxamide]
0.115 µM	CN1C(=O)[C@@H](NC(=O)c2ncn(Cc3ccccc3)n2)CCn2nc(CCN3CC(F)(F)C3)cc21 [Example 772]

same assay, conditions: human RIP1 kinase domain (2-375), 50 uM ATP, 2 hours incubation, Transcreener ADP assay; read-out: RIP1 Ki

Ki	Compound
0.0617 µM	CN1C(=O)[C@@H](NC(=O)c2n[nH]c3c2CC(c2ccc(F)cc2F)OC3)COc2ccccc21 (stereo partly drawn) [Example 207, 5-(2,4-difluorophenyl)-N—((S)-5-methyl-4-oxo-2,3,4,5-tetrahydrobenzo[b][1,4]oxazepin-3-yl)-1,4,5,7-tetrahydropyrano[3,4-c]pyrazole-3-carboxamide]
0.0056 µM	CN1C(=O)[C@@H](NC(=O)c2n[nH]c3ncc(C(F)(F)C(F)(F)F)cc23)COc2ccccc21 [Example 117, (S)—N-(5-methyl-4-oxo-2,3,4,5-tetrahydrobenzo[b][1,4]oxazepin-3-yl)-5-(perfluoroethyl)-1H-pyrazolo[3,4-b]pyridine-3-carboxamide]
0.573 µM	CN1C(=O)[C@@H](NC(=O)c2n[nH]c3c2CC(C)(c2ccccc2)OC3)COc2ccccc21 (stereo partly drawn) [Example 212, 5-methyl-N—((S)-5-methyl-4-oxo-2,3,4,5-tetrahydrobenzo[b][1,4]oxazepin-3-yl)-5-phenyl-1,4,5,7-tetrahydropyrano[3,4-c]pyrazole-3-carboxamide]
0.0363 µM	Cc1cc2n(n1)CC[C@H](NC(=O)c1ncn(CC3CCCC3)n1)C(=O)N2C [Example 162, (S)-1-(cyclopentylmethyl)-N-(2,4-dimethyl-5-oxo-5,6,7,8-tetrahydro-4H-pyrazolo[1,5-a][1,3]diazepin-6-yl)-1H-1,2,4-triazole-3-carboxamide]
0.254 µM	CC(C)n1ncc2c1OC[C@H](NC(=O)c1nnc(Cc3ccccc3)[nH]1)C(=O)N2C [Example 179, (S)-5-benzyl-N-(1-isopropyl-4-methyl-5-oxo-4,5,6,7-tetrahydro-1H-pyrazolo[3,4-b][1,4]oxazepin-6-yl)-4H-1,2,4-triazole-3-carboxamide]
0.477 µM	CN1C(=O)C(NC(=O)c2cn(Cc3ccc(F)c(F)c3)cn2)CCn2ccnc21 (stereo not drawn) [Example 178, 1-(3,4-difluorobenzyl)-N-(9-methyl-8-oxo-6,7,8,9-tetrahydro-5H-imidazo[1,2-a][1,3]diazepin-7-yl)-1H-imidazole-4-carboxamide]
0.0576 µM	CCn1ncc2cnc(C(=O)N[C@H]3COc4ccccc4N(C)C3=O)cc21 [Example 202, (S)-1-ethyl-N-(5-methyl-4-oxo-2,3,4,5-tetrahydrobenzo[b][1,4]oxazepin-3-yl)-1H-pyrazolo[4,3-c]pyridine-6-carboxamide]
0.104 µM	O=C(N[C@H]1COc2cc(F)cc(F)c2NC1=O)c1n[nH]c2c1C[C@H](C(F)(F)F)CC2 (single isomer, unassigned) [Example 87]

same assay, conditions: human RIP1 kinase domain (2-375), Transcreener ADP assay, 50 uM ATP, 2 hours incubation; read-out: RIP1 Ki

Ki	Compound
8.9 µM	Cc1cc2n(n1)CC[C@@H](NC(=O)c1nnc(Cc3ccccc3)[nH]1)C(=O)N2C [Example 241, (R)-5-benzyl-N-(2,4-dimethyl-5-oxo-5,6,7,8-tetrahydro-4H-pyrazolo[1,5-a][1,3]diazepin-6-yl)-4H-1,2,4-triazole-3-carboxamide]
0.0887 µM	CN1C(=O)[C@@H](NC(=O)c2cc3c(cn2)COC32CCOC2)COc2ccccc21 (stereo partly drawn) [Example 232, N—((S)-5-methyl-4-oxo-2,3,4,5-tetrahydrobenzo[b][1,4]oxazepin-3-yl)-4,5-dihydro-2H,3′ H-spiro[furan-3,1′-furo[3,4-c]pyridine]-6′-carboxamide]
0.0435 µM	CN1C(=O)[C@H](NC(=O)c2ncn(Cc3ccc(F)c(F)c3)n2)CCn2nc([C@H]3CC3(F)F)cc21 [Example 314, 1-(3,4-difluorobenzyl)-N—((R)-2-((R)-2,2-difluorocyclopropyl)-4-methyl-5-oxo-5,6,7,8-tetrahydro-4H-pyrazolo[1,5-a][1,3]diazepin-6-yl)-1H-1,2,4-triazole-3-carboxamide]
> 10 µM	CC[C@]1(C)OCc2cnc(C(=O)N[C@H]3CCn4nc([C@H]5CC5(F)F)cc4N(C)C3=O)cc21 [Example 319, (S)—N—((S)-2-((R)-2,2-difluorocyclopropyl)-4-methyl-5-oxo-5,6,7,8-tetrahydro-4H-pyrazolo[1,5-a][1,3]diazepin-6-yl)-1-ethyl-1-methyl-1,3-dihydrofuro[3,4-c]pyridine-6-carboxamide]
0.289 µM	CN1C(=O)[C@@H](NC(=O)c2n[nH]c3ncc(C4CC4)cc23)COc2ccccc21 [Example 239, (S)-5-cyclopropyl-N-(5-methyl-4-oxo-2,3,4,5-tetrahydrobenzo[b][1,4]oxazepin-3-yl)-1H-pyrazolo[3,4-b]pyridine-3-carboxamide]

same assay, conditions: read-out: RIP1 Ki

Compound	Ki
CN1C(=O)[C@@H](NC(=O)c2nnc3ccc(C(F)(F)C(F)(F)F)nn23)COc2ccccc21 [Example 114, (S)—N-(5-methyl-4-oxo-2,3,4,5-tetrahydrobenzo[b][1,4]oxazepin-3-yl)-6-(perfluoroethyl)-[1,2,4]triazolo[4,3-b]pyridazine-3-carboxamide]	0.0683 µM

same assay, conditions: tight-binding apparent inhibition constant; human RIP1 kinase domain (2-375) 50 nM, 50 uM ATP, 2 hours; read-out: Ki

Ki	Compound
3.98 µM	CN1C(=O)[C@H](NC(=O)c2ncn(Cc3ccccc3)n2)CCn2nc([C@H]3CC3(F)F)cc21 (racemic) [Example 674, 1-benzyl-N-[rac-(6R)-4-methyl-5-oxo-2-[rac-(1R)-2,2-difluorocyclopropyl]-7,8-dihydro-6H-pyrazolo[1,5-a] [1,3]diazepin-6-yl]-1,2,4-triazole-3-carboxamide]
0.0969 µM	Cc1cc(F)c2c(c1)OC[C@H](NC(=O)c1nc3n(n1)[C@H](C(C)C)CC3)C(=O)N2 (single isomer, unassigned) [Example 352]
0.0521 µM	CCC1CCc2nc(C(=O)N[C@H]3COc4ccccc4N(C)C3=O)nn21 (stereo partly drawn) [Example 355, 5-ethyl-N-[(3S)-5-methyl-4-oxo-2,3-dihydro-1,5-benzoxazepin-3-yl]-6,7-dihydro-5H-pyrrolo[1,2-b][1,2,4]triazole-2-carboxamide]
0.1 µM	Cc1nc(C)n2c1N(C)C(=O)[C@H](NC(=O)c1ncn(Cc3ccccc3F)n1)CC2 [Example 596, 1-[(2-fluorophenyl)methyl]-N-(3R)-1,7,9-trimethyl-2-oxo-4,5-dihydro-3H-imidazo[1,5-a][1,3]diazepin-3-yl-1,2,4-triazole-3-carboxamide]
0.803 µM	CN1C(=O)[C@@H](NC(=O)c2nc3n(n2)[C@H](c2ccccc2F)CC3)CCn2nccc21 [Example 466, (S)-5-(2-fluorophenyl)-N—((S)-4-methyl-5-oxo-5,6,7,8-tetrahydro-4H-pyrazolo[1,5-a][1,3]diazepin-6-yl)-6,7-dihydro-5H-pyrrolo[1,2-b][1,2,4]triazole-2-carboxamide]
0.058 µM	Cc1cc2n(n1)CC[C@H](NC(=O)c1nc3n(n1)CCC3c1ccccc1)C(=O)N2C (stereo partly drawn) [Example 574, 7-phenyl-N-[(6S)-2,4-dimethyl-5-oxo-7,8-dihydro-6H-pyrazolo[1,5-a][1,3]diazepin-6-yl]-6,7-dihydro-5H-pyrrolo[1,2-b][1,2,4]triazole-2-carboxamide]
0.017 µM	CN1C(=O)[C@@H](NC(=O)c2ncn(Cc3ccc(F)c(F)c3)n2)CCn2nccc21 (racemic) [Example 341, 1-[(3,4-difluorophenyl)methyl]-N-[rac-(6S)-4-methyl-5-oxo-7,8-dihydro-6H-pyrazolo[1,5-a][1,3]diazepin-6-yl]-1,2,4-triazole-3-carboxamide]
0.052 µM	CN1C(=O)[C@@H](NC(=O)c2ncn(C[C@H]3C[C@@H](C)C3)n2)CCn2nccc21 [Example 496, N—((S)-4-methyl-5-oxo-5,6,7,8-tetrahydro-4H-pyrazolo[1,5-a][1,3]diazepin-6-yl)-1-(((1S,3R)-3-methylcyclobutyl)methyl)-1H-1,2,4-triazole-3-carboxamide]

— patent US10988459B2 (priority 2015, dated 2021)
